28 molecules from patent publication US10981908B2, “Aryl hydrocarbon receptor (AHR) modulator compounds” (PHENEX PHARMACEUTICALS AG, priority 2017, dated 2021) can be followed below.

Structures are written as SMILES.

This test deals with T1, AhR (Homo sapiens, UniProt P35869).
T1 construct: The HepG2 CYP1A1-Luc cells do express basal luciferase activity that can be increased via potent AhR agonists or decreased via potent AhR antagonists; endogenous in cells
T1 sequence (P35869 11-848): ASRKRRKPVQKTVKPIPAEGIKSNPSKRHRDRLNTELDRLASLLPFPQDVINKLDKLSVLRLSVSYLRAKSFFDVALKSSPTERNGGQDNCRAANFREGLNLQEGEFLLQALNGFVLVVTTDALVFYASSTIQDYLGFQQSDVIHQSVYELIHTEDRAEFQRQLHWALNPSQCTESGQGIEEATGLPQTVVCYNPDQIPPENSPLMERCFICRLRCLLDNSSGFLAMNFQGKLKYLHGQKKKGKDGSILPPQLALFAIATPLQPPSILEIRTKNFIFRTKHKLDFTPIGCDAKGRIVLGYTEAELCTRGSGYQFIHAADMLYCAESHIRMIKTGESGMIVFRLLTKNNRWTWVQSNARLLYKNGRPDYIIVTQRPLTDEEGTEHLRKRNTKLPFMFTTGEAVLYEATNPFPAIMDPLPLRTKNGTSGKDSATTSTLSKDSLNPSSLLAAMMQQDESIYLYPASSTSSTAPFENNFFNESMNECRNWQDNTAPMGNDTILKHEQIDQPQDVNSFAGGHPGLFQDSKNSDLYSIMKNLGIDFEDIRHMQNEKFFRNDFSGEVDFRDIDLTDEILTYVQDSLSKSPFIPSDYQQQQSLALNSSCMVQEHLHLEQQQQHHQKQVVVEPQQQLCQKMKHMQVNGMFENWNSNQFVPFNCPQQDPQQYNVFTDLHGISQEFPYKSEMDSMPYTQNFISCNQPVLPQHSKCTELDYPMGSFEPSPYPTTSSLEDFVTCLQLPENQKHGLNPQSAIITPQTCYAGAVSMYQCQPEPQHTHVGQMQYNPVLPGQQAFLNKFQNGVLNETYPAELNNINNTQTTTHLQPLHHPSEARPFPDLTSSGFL
In words: AhR direct luciferase reporter assay in HepG2 cells (HepG2 CYP1A1-LUC). It counts as cell-based. Conditions: luciferase activity after 18 hours, medium with no exogenous AhR agonist or 10 nM VAF347, read-out: AhR potency (AhR antagonistic potency, IC50 class). An excerpt: AhR Direct Luciferase Reporter Assay in HepG2 Cells
A stable cell line (HepG2 CYP1A1-LUC) was used in which part of the promoter region of the human CYP1A1 gene is stably integrated into the genome of human HepG2 hepatocytes (DSZM #ACC 180) in front of a Photinus pyralis Firefly Luciferase gene. A 1210 bp fragment comprising part of the human CYP1A1 promoter was isolated via SacI and BgIII restriction digestion from Lightswitch Clone S714555 (SwitchGearGenomics) and inserted between the SacI and BgIII sites in pGL4.30 (Promega #E8481) in front of the Firefly Luciferase gene. The resulting vector was linearized with NotI, transfected into HepG2 cells (DSMZ #ACC 180) and stably transfected clones selected with 250 μg/ml Hygromycin B. After repetitive rounds of subcloning and testing for robustly regulated luciferase activity after AhR agonist stimulation, a stable clonal HepG2 CYP1A1-Luc cell line was selected.
The HepG2 CYP1A1-Luc cells do express basal luciferase activity that can be increased via potent AhR agonists or decreased via potent AhR antagonists, added to the growth medium of the cells.
In typical reporter assays performed with this cell line, cells are grown in 96-well plates and AhR modulators are titrated into the growth medium in serial dilutions in RPMI-1640 Medium (Sigma #R7509) supplemented with 8,6% fetal calf serum (Sigma #F7524) and containing either no exogenous AhR agonist or 10 nM of the potent AhR agonist VAF347 (Calbiochem #182690). Cells are further cultivated for 18 hours and luciferase activities are determined from extracts of cells in buffers containing D-Luciferine and ATvP using a LUMIstar Optima microplate Luminometer from BMG Labtech.
On to `CCc1ccc(C(F)(F)F)c(-c2cc3ccc(NC(=O)c4ncnn4C)nc3[nH]2)c1` [Example 1/29, N-(2-(5-Ethyl-2-(trifluoromethyl)phenyl)-1H-pyrrolo[2,3-b]pyridin-6-yl)-1-methyl-1H-1,2,4-triazole-5-carboxamide], for which the IC50 is under 100 nM. `Cn1ncnc1C(=O)Nc1ccc2c(F)c(-c3ccccc3C(F)F)[nH]c2n1` [4/6]: the concentration for half-maximal inhibition (IC50) lay within 100 to 1000 nM.

Regarding `Cn1ncnc1C(=O)Nc1ccc2cc(-c3ccccc3C(N)=O)[nH]c2n1` [Example 7, N-(2-(2-Carbamoylphenyl)-1H-pyrrolo[2,3-b]pyridin-6-yl)-1-methyl-1H-1,2,4-triazole-5-carboxamide], the IC50 fell in the range of 100 to 1000 nM. As to `Cn1ncnc1C(=O)Nc1ccc2cc(-c3cccc4c3CCC4)[nH]c2n1` [Example 1/16, N-(2-(2,3-Dihydro-1H-inden-4-yl)-1H-pyrrolo[2,3-b]pyridin-6-yl)-1-methyl-1H-1,2,4-triazole-5-carboxamide], the IC50 is under 100 nM. The value for `O=C(Nc1ccc2cc(-c3ccccc3C(F)(F)F)[nH]c2n1)c1cccnc1` [Example 1/10, N-(2-(2-(Trifluoromethyl)phenyl)-1H-pyrrolo[2,3-b]pyridin-6-yl) nicotinamide] was 100 to 1000 nM. On to `Cc1ccc(C(F)F)c(-c2cc3ccc(NC(=O)c4ncnn4C)nc3[nH]2)c1` [Example 1/35, N-(2-(2-(Difluoromethyl)-5-methylphenyl)-1H-pyrrolo[2,3-b]pyridin-6-yl)-1-methyl-1H-1,2,4-triazole-5-carboxamide], for which the half-maximal inhibitory concentration (IC50) was under 100 nM. For `Cn1ncnc1C(=O)Nc1ccc2cc(-c3cc(C(F)(F)F)ccc3C(F)(F)F)[nH]c2n1` [Example 1/30, N-(2-(2,5-Bis(trifluoromethyl)phenyl)-1H-pyrrolo[2,3-b]pyridin-6-yl)-1-methyl-1H-1,2,4-triazole-5-carboxamide], the IC50 is under 100 nM. Take `Cn1ncnc1C(=O)Nc1ccc2cc(-c3cc(F)c(F)cc3C(F)F)[nH]c2n1` [Example 1/28, N-(2-(2-(Difluoromethyl)-4,5-difluorophenyl)-1H-pyrrolo[2,3-b]pyridin-6-yl)-1-methyl-1H-1,2,4-triazole-5-carboxamide]: the half-inhibitory concentration (IC50) was under 100 nM. As for `Cn1ccnc1C(=O)Nc1ccc2cc(-c3ccccc3C(F)F)[nH]c2n1` [4/4], the IC50 is under 100 nM. With `O=C(Nc1ccc2cc(-c3ccccc3C(F)(F)F)[nH]c2n1)c1ccccc1F` [Example 1/8, 2-Fluoro-N-(2-(2-(trifluoromethyl)phenyl)-1H-pyrrolo[2,3-b]pyridin-6-yl)benzamide], the IC50 was under 100 nM. For the molecule `COc1ccccc1-c1cc2ccc(NC(=O)c3ncnn3C)nc2[nH]1` [Example 1/18, N-(2-(2-Methoxyphenyl)-1H-pyrrolo[2,3-b]pyridin-6-yl)-1-methyl-11H-1,2,4-triazole-5-carboxamide], the IC50 lay within 100 to 1000 nM. The value for `Cn1ncnc1C(=O)Nc1ccc2cc(-c3ccc(F)cc3C(F)(F)F)[nH]c2n1` [Example 1/14, N-(2-(4-Fluoro-2-(trifluoromethyl)phenyl)-1H-pyrrolo[2,3-b]pyridin-6-yl)-1-methyl-1H-1,2,4-triazole-5-carboxamide] was under 100 nM; that for `Cn1cnnc1C(=O)Nc1ccc2cc(-c3ccccc3C(F)(F)F)[nH]c2n1` [Example 1/21, 4-Methyl-N-(2-(2-(trifluoromethyl)phenyl)-1H-pyrrolo[2,3-b]pyridin-6-yl)-4H-1,2,4-triazole-3-carboxamide] was 100 to 1000 nM; that for `Cn1ncnc1C(=O)Nc1ccc2cc(-c3ncccc3C(F)(F)F)[nH]c2n1` [Example 1/17, 1-Methyl-N-(2-(3-(trifluoromethyl)pyridin-2-yl)-1H-pyrrolo[2,3-b]pyridin-6-yl)-1H-1,2,4-triazole-5-carboxamide] was over 1000 nM. For the molecule `CCc1ccccc1-c1cc2ccc(NC(=O)c3ncnn3C)nc2[nH]1` [4/1], the IC50 is under 100 nM. Consider `Cc1ccc(C(F)(F)F)c(-c2cc3ccc(NC(=O)c4ncnn4C)nc3[nH]2)c1` [Example 1/33, 1-Methyl-N-(2-(5-methyl-2-(trifluoromethyl)phenyl)-1H-pyrrolo[2,3-b]pyridin-6-yl)-1H-1,2,4-triazole-5-carboxamide], for which the IC50 is under 100 nM.

`Cn1ncnc1C(=O)Nc1ccc2c(C#N)c(-c3ccccc3C(F)F)[nH]c2n1` [Example 14, N-(3-Cyano-2-(2-(difluoromethyl)phenyl)-1H-pyrrolo[2,3-b]pyridin-6-yl)-1-methyl-1H-1,2,4-triazole-5-carboxamide]: the IC50 was under 100 nM. With `Cn1ncnc1C(=O)Nc1ccc2cc(-c3ccccc3C(=O)O)[nH]c2n1` [Example 6, 2-(6-(1-Methyl-1H-1,2,4-triazole-5-carboxamido)-1H-pyrrolo[2,3-b]pyridin-2-yl)benzoic acid], the IC50 is over 1000 nM. On to `Cn1nccc1C(=O)Nc1ccc2cc(-c3cccc(C(F)(F)F)c3)[nH]c2n1` [Example 1/2, 1-Methyl-N-(2-(3-(trifluoromethyl)phenyl)-1H-pyrrolo[2,3-b]pyridin-6-yl)-1H-pyrazole-5-carboxamide], for which the IC50 fell in the range of 100 to 1000 nM. In the case of `Cn1nccc1C(=O)Nc1ccc2cc(-c3ccccc3OC(F)(F)F)[nH]c2n1` [Example 1/4, 1-Methyl-N-(2-(2-(trifluoromethoxy)phenyl)-1H-pyrrolo[2,3-b]pyridin-6-yl)-1H-pyrazole-5-carboxamide], the IC50 is over 1000 nM. With `O=C(Nc1ccc2cc(-c3ccccc3C(F)(F)F)[nH]c2n1)c1cc2ccoc2cn1` [Example 1/19, N-(2-(2-(Trifluoromethyl)phenyl)-1H-pyrrolo[2,3-b]pyridin-6-yl)furo[2,3-c]pyridine-5-carboxamide], the IC50 lay in the range of 100 to 1000 nM. The value for `Cn1ncnc1C(=O)Nc1ccc2cc(-c3cc(Cl)ccc3C(F)F)[nH]c2n1` [Example 1/34, N-(2-(5-Chloro-2-(difluoromethyl)phenyl)-1H-pyrrolo[2,3-b]pyridin-6-yl)-1-methyl-1H-1,2,4-triazole-5-carboxamide] was under 100 nM. `Cn1nccc1C(=O)Nc1ccc2cc(-c3ccccc3C(F)(F)F)[nH]c2n1` [Example 1/1, 1-Methyl-N-(2-(2-(trifluoromethyl)phenyl)-1H-pyrrolo[2,3-b]pyridin-6-yl)-1H-pyrazole-5-carboxamide]: the IC50 is under 100 nM.

`Cn1nc(C(N)=O)cc1C(=O)Nc1ccc2cc(-c3ccccc3C(F)(F)F)[nH]c2n1` [Example 2, 1-Methyl-n^5-(2-(2-(trifluoromethyl)phenyl)-1H-pyrrolo[2,3-b]pyridin-6-yl)-1H-pyrazole-3,5-dicarboxamide]: the IC50 lay in the range of 100 to 1000 nM. The value for `Cn1nccc1C(=O)Nc1ccc2cc(-c3cccnc3C(F)(F)F)[nH]c2n1` [Example 1/3, 1-Methyl-N-(2-(2-(trifluoromethyl)pyridin-3-yl)-1H-pyrrolo[2,3-b]pyridin-6-yl)-1H-pyrazole-5-carboxamide] was 100 to 1000 nM; that for `Cn1ncnc1C(=O)Nc1ccc2cc(-c3cc(Cl)ccc3C(F)(F)F)[nH]c2n1` [Example 1/26, N-(2-(5-Chloro-2-(trifluoromethyl)phenyl)-1H-pyrrolo[2,3-b]pyridin-6-yl)-1-methyl-11H-1,2,4-triazole-5-carboxamide] was under 100 nM; that for `Cn1ncnc1C(=O)Nc1ccc2cc(-c3ccccc3C(F)(F)F)[nH]c2n1` [Example 1/6, 1-Methyl-N-(2-(2-(trifluoromethyl)phenyl)-1H-pyrrolo[2,3-b]pyridin-6-yl)-1H-1,2,4-triazole-5-carboxamide] was under 100 nM. For `Cn1ncnc1C(=O)Nc1ccc2cc(-c3ccc(C(=O)O)cc3)[nH]c2n1` [Example 12/1, 4-(6-(1-Methyl-1H-1,2,4-triazole-5-carboxamido)-1H-pyrrolo[2,3-b]pyridin-2-yl)benzoic Acid], the IC50 was over 1000 nM.

As a reminder, the IC50 is the concentration needed to halve the response being measured.
